Measurements from patent US10098894B2, “Transdermal cream” (TherapeuticsMD, Inc., priority 2014, dated 2018).
Converted amounts (≈) assume the structure as drawn. Where two headings read alike, the source gives them in different places.

Assays:
[1] = system: endometrium and vagina in ovariectomized rats; test: Estradiol-induced endometrium proliferation in ovariectomized rats (uterine weight, histology, histomorphometry); format: in vivo, rat; conditions: for Uterine weight compared to estradiol-only treatment group: Days 4-8, with estradiol
Experimental: Thirty-two 8-week-old, female, Crl:CD® rats underwent ovariectomy 2 weeks prior to the start of the study. Rats were randomly assigned to 4 groups of 8 rats each. Three of the groups received 3 μg/kg/day estradiol, subcutaneously (SC), for 8 days as well as a placebo cream, 10 mg/kg/day progesterone, SC, or 3.125 mg/day progesterone transdermally beginning on Day 4. The fourth group received saline, SC for 8 days and placebo cream beginning on Day 4. Two hours after the final dose on Day 8, the rats were humanely euthanized, uterine weights were measured, and the vagina and distal portions of the uterine horns were fixed and processed for histology and computer-aided morphometry. Study parameters are outlined in Table 22.

[2] = Progesterone solubility study in different solvent systems; format: physicochemical; conditions: thermodynamic from solid, room temperature, visual
Experimental: Solubility of progesterone was determined on a visual basis by adding progesterone incrementally to a certain quantity of solvent at room temperature until a supersaturated solution was formed.

[3] = Exposure, tissue distribution and metabolite profile (progesterone, ALLO, ALLO-sulfate in plasma, salivary gland, uterus) in ovariectomized rats; format: in vivo; conditions: for Kp at 2 h: female, Crl:CD, uterus/plasma, read-out: Ratio of progesterone levels in the uterus to plasma; for Mean progesterone level in plasma / Mean progesterone level in salivary gland / Mean progesterone level in uterus: 2 hours after final dose Day 8
Experimental: Thirty-two 8-week-old, female, Crl:CD® rats underwent ovariectomy 2 weeks prior to study start. […] Plasma and tissue homogenates were analyzed for progesterone, ALLO, and ALLO-sulfate using LC-MS/MS.

[4] = Progesterone solubility study in different solvent systems; format: physicochemical; conditions: oil or lipid, thermodynamic from solid; in CAPRYOL 90; solubility determined by HPLC

C[C@]12CC[C@@H]3c4ccc(O)cc4CC[C@H]3[C@@H]1CC[C@@H]2O [estradiol, (17β)-estra-1,3,5(10)-triene-3,17-diol]
Effect of unopposed estradiol treatment on the uterus (organ weight, histology) ([1]; 3 μg/kg/day SC, 8 days): hypertrophy

CC(=O)[C@H]1CC[C@H]2[C@@H]3CCC4=CC(=O)CC[C@]4(C)[C@H]3CC[C@]12C [progesterone, pregn-4-ene-3,20-dione]
solubility ([2]; aqueous with cosolvent or surfactant or cyclodextrin, in 5% SLS): 6.6 mg/mL (≈ 21 mM) | solubility ([2]; oil or lipid, in CAPRYOL PGMC): 82 mg/mL (≈ 261 mM) | solubility ([2]; oil or lipid, in GLYCEROX 767): 22.2 mg/mL (≈ 70.6 mM) | solubility ([2]; oil or lipid, in LABRAFAC PG): 41 mg/mL (≈ 130 mM) | solubility ([2]; oil or lipid, in LAUROGLYCOL 90): 90.2 mg/mL (≈ 287 mM) | solubility ([2]; oil or lipid, in LAUROGLYCOL FCC): 60 mg/mL (≈ 191 mM) | solubility ([2]; oil or lipid, in MIGLYOL 812 + D-L α Tocopherol Care (85:15)): 38.2 mg/mL | solubility ([2]; oil or lipid, in MIGLYOL 812 + D-L α Tocopherol Care (95:5)): 20.1 mg/mL | solubility ([2]; oil or lipid, in MIGLYOL 812 + LABRAFAC PG (50:50)): 25.7 mg/mL | solubility ([2]; oil or lipid, in MIGLYOL 812 + LAUROGLYCOL 90 (25:75)): 47 mg/mL | solubility ([2]; oil or lipid, in MIGLYOL 812 + LAUROGLYCOL 90 (50:50)): 58.9 mg/mL | solubility ([2]; oil or lipid, in MIGLYOL 812 + TRANSCUTOL (92.5:7.5)): 40.2 mg/mL | solubility ([2]; oil or lipid, in MIGLYOL 812 + TRANSCUTOL (95:5)): 40.5 mg/mL | solubility ([2]; oil or lipid, in MIGLYOL 812 + Vitamin E TPGS (91:9)): 45.2 mg/mL | solubility ([2]; oil or lipid, in MIGLYOL 812): 25 mg/mL (≈ 79.5 mM) | solubility ([2]; oil or lipid, in MIGLYOL 829): 41.3 mg/mL (≈ 131 mM) | solubility ([2]; oil or lipid, in MIGLYOL 840): 41.7 mg/mL (≈ 133 mM) | solubility ([2]; oil or lipid, in Oleic Acid): 62.2 mg/mL (≈ 198 mM) | solubility ([2]; oil or lipid, in Oleyl Alcohol): 41.2 mg/mL (≈ 131 mM) | solubility ([2]; organic solvent or mixture, in Absolute Alcohol): 57 mg/mL (≈ 181 mM) | solubility ([2]; organic solvent or mixture, in Dimethyl Isosorbide): 92 mg/mL (≈ 293 mM) | solubility ([2]; organic solvent or mixture, in Propylene Glycol): 10.5 mg/mL (≈ 33.4 mM) | solubility ([2]; organic solvent or mixture, in TRANSCUTOL): 60.3 mg/mL (≈ 192 mM) | solubility ([2]; organic solvent or mixture, in d-Limonene + TRANSCUTOL (25:75)): 95.6 mg/mL | solubility ([2]; organic solvent or mixture, in d-Limonene + TRANSCUTOL (40:60)): 102 mg/mL | solubility ([2]; organic solvent or mixture, in d-Limonene + TRANSCUTOL (50:50)): 100 mg/mL | solubility ([2]; organic solvent or mixture, in d-Limonene): 204 mg/mL (≈ 649 mM) | Kp at 2 h ([3]; 10 mg/kg/day, rat, SC route): 7.3 | Kp at 2 h ([3]; topical, 3.13 mg/rat/day, transdermal route): 12 | Mean progesterone level in plasma ([3]; rat, SC administration): 5.4 ng/mL/mg dose | Mean progesterone level in salivary gland ([3]; rat, SC administration): 5.9 ng/mL/mg dose | Mean progesterone level in uterus ([3]; rat, SC administration): 39 ng/mL/mg dose | Levels of ALLO in the plasma, comparison of both routes of administration ([3]; rat, SC vs topical): similar | Sum of plasma levels of ALLO and ALLO-sulfate relative to plasma level of progesterone ([3]; rat, after topical dosing): equivalent | Mean tissue levels of ALLO and ALLO-sulfate, SC administration compared to topical administration ([3]; rat, all instances): higher | Mean progesterone level in plasma ([3]; rat, topical administration (Table 16 formulation)): 2.0 ng/mL/mg dose | Mean progesterone level in salivary gland ([3]; rat, topical administration): 10 ng/mL/mg dose | Mean progesterone level in uterus ([3]; rat, topical administration): 24 ng/mL/mg dose | solubility [4]: 112 mg/mL (≈ 355 mM) | Endometrial gland density, transdermal as compared to SC progesterone [1]: significant increase | Uterine weight compared to estradiol-only treatment group ([1]; progesterone 3.125 mg/day transdermally (formulation of Table 16)): pronounced reduction | Uterine weight compared to estradiol-only treatment group ([1]; progesterone 10 mg/kg/day SC): pronounced reduction | Endometrial gland density compared to unopposed estradiol ([1]; progesterone SC): significant increase | Luminal epithelial cell thickness compared to unopposed estradiol ([1]; progesterone SC): significant reduction | Estrogen-specific cellular aspects in uterus and vagina (histology) ([1]; progesterone SC with estradiol): not detected | Endometrial gland density compared to unopposed estradiol ([1]; progesterone transdermally): significant increase | Luminal epithelial cell thickness compared to unopposed estradiol ([1]; progesterone transdermally): significant reduction | Estrogen-specific cellular aspects in uterus and vagina (histology) ([1]; progesterone transdermally with estradiol): not detected
